According to ChEMBL document CHEMBL2346556, “Synthesis, receptor binding and activity of iso and azakainoids” (Bioorg Med Chem Lett, 2013):
pEC50: −log10 of the molar value. Active and inactive are the calls of the source. The rule behind the calls is not given here.

Legend:
Rattus norvegicus [1] = species: Rattus norvegicus; assay: (§1) Displacement of [3H]glutamic acid from rat brain unspecified glutamate receptor by competitive binding assay
Rattus norvegicus [2] = species: Rattus norvegicus; assay: Displacement of [3H]kainic acid from rat brain unspecified glutamate receptor by competitive binding assay
Rattus norvegicus [3] = species: Rattus norvegicus; assay: Displacement of [3H]NMDA from rat brain unspecified glutamate receptor by competitive binding assay
Rattus norvegicus [4] = species: Rattus norvegicus; assay: Displacement of [3H]AMPA from rat brain unspecified glutamate receptor by competitive binding assay
Aplysia californica [5] = assay: Agonist activity at glutamate receptor in Aplysia californica buccal S cluster neurons assessed as receptor non-desensitization at 30 mV holding potential at 1 mM by patch clamp technique
Aplysia californica [6] = assay: Agonist activity at glutamate receptor in Aplysia californica buccal S cluster neurons assessed as membrane depolarization at 1 mM by patch clamp technique
[7] = as §1

| Structure (SMILES) | Activity (Rattus norvegicus [1]) | Activity (Rattus norvegicus [2]) | Activity (Rattus norvegicus [3]) | Activity (Rattus norvegicus [4]) | Activity (Aplysia californica [5]) | Activity (Aplysia californica [6]) | pEC50 [7] |
| --- | --- | --- | --- | --- | --- | --- | --- |
| O=C(O)C[C@H]1CCN[C@@H]1C(=O)O (relative stereo) | inactive | inactive | inactive | inactive | – | – | – |
| O=C(O)C[C@H]1CNC[C@@H]1C(=O)O (relative stereo) | inactive | inactive | inactive | inactive | – | – | – |
| O=C(O)C[C@H]1CNN[C@@H]1C(=O)O (relative stereo) | – | inactive | inactive | inactive | Active | Active | 4.92 |
